Consider three compounds from article PMC3977315 (2010).

Test [1] relates to poly(dA)•2poly(dT) (DNA, polymer) A/T. Briefly: UV melting. The conditions noted are these: K+ 150 mM, 10 mM sodium cacodylate, pH 6.8, rdb 1.67.
Test [2] deals with poly(dA)•poly(dT) (DNA, polymer) A/T. Put plainly: fluorescent intercalator displacement. To be noted: K+ 150 mM; Na+ 10 mM; thiazole orange not displaced; highest concentration 10 mM.
For test [3], the system named is poly(dA)•2poly(dT) (DNA, polymer) A/T. Briefly: calorimetric/spectroscopic thermodynamic profile. The conditions noted are these: K+ 150 mM; 10 mM sodium cacodylate, 0.5 mM EDTA, pH 5.5, 20 °C.
For test [4] the test system is unchanged. Put plainly: fluorescent intercalator displacement. To be noted: thiazole orange displaced.

As a reminder, the AC50 is the midpoint of the concentration-response curve, whichever way the signal moves.

With `NC[C@@H]1O[C@H](O[C@H]2[C@@H](O)[C@H](O[C@@H]3[C@@H](O)[C@H](N)C[C@H](N)[C@H]3O[C@H]3O[C@H](CN)[C@@H](O)[C@H](O)[C@H]3N)O[C@@H]2CO)[C@H](N)[C@@H](O)[C@@H]1O`, in test [1] (25 μM neomycin, per base), the ΔTm3→2 is ~ 25 °C. In test [2], this compound showed an AC50 of over 10 mM. Further, in test [3], the “KT(20°C)” value was “(2.4±0.1)×10^5 M^−1”.

For the compound `NC[C@H]1O[C@H](O[C@H]2[C@H](O[C@@H]3O[C@H](CO)[C@@H](O)[C@H]3O)[C@@H](O)[C@H](N)C[C@@H]2N)[C@H](N)[C@@H](O)[C@@H]1O`, in test [4], the binding entry was “weak”. With `NC[C@H]1O[C@H](O[C@H]2[C@H](O)[C@@H](O)[C@H](N)C[C@@H]2N)[C@H](N)[C@@H](O)[C@@H]1O`, in test [1], the binding entry is reported as “weak”.
